Inhibition in vivo, IC50 and inhibition data for 8 compounds are collected here from ChEMBL document CHEMBL6103630, “Discovery of Novel 2,4,5-Trisubstituted Pyrimidine Derivatives as Potent and Selective FGFR Inhibitors against Gatekeeper Mutants for the Treatment of NSCLC” (J Med Chem, 2025).

Test [1] deals with NCI-H1581. As to the kind of experiment: Antitumor activity against human NCI-H1581 cells xenografted in BALB/c nude mouse assessed as tumor growth inhibition at 60 mg/kg relative to control. The class given is functional. The settings on record: read-out: TGI. For orientation: In xenograft studies the graft and the host belong to different species.
For test [2], the system named is NCI-H1581. Put plainly: cells. The following applies: Homo sapiens, NCI-H1581, 48 h.
Description: Antiproliferative activity against human NCI-H1581 cells assessed as inhibition of cell proliferation incubated for 48 hrs by MTT assay
The next test has as its system A549. Put plainly: cells. The settings on record: Homo sapiens, A549, 48 h.
The target of test [3] is Fibroblast growth factor receptor 1 (Homo sapiens) (UniProt P11362). Put plainly: Reversible inhibition of FGFR1 (unknown origin) phosphorylation in human NCI-H1581 cells at 1 uM preincubated with compound for 2 hrs followed by compound washout and measured after 0.5 hrs by Western blotting analysis. The test is classed as cell-based.
For test [4] the target is unchanged. The settings on record: dose 1000.0 nM.
Description: Inhibition of FGFR1 (unknown origin) at 1000 nM by caliper mobility shift assay relative to control

SMILES strings stand for the structures. Calls of active or inactive are those of the source. The rule behind the calls is not given here. Some results are limits rather than exact numbers.

Fibroblast growth factor receptor 1 (Homo sapiens), sequence (P11362 22-822 limits assumed): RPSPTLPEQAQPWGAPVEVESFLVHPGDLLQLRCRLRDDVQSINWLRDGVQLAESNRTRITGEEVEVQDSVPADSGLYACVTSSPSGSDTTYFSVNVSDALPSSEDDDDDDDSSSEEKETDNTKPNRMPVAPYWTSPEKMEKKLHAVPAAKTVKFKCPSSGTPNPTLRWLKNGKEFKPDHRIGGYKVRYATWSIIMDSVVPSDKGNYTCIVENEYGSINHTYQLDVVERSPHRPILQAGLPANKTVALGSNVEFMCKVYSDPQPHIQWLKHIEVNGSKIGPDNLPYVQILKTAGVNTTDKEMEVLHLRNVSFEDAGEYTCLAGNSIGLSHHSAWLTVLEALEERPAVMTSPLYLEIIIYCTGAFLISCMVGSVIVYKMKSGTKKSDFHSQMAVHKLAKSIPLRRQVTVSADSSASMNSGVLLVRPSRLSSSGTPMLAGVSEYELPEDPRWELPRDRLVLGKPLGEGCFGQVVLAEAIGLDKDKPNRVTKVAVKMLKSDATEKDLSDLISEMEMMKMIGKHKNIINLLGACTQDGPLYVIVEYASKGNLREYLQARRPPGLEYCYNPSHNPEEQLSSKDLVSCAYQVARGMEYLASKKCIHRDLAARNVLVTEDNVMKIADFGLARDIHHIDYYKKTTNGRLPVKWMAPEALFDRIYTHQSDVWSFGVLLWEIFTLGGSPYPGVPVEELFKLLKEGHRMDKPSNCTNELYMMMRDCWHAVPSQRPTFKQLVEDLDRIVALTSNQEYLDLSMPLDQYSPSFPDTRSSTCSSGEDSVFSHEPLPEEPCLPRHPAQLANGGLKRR
Description for A549: Antiproliferative activity against human A549 cells assessed as inhibition of cell proliferation incubated for 48 hrs by MTT assay

In general, IC50 refers to the point on the concentration scale where inhibition reaches its midpoint. A lower IC50 goes with inhibition by little substance. As to `C=CC(=O)N1CC[C@H](n2nc(C#Cc3cc(OC)cc(OC)c3)c3c(N)ncnc32)C1` [FUTIBATINIB], in the test on NCI-H1581 [1], the inhibition in vivo at 60 mg/kg came out at 54%. For the same compound, the results for the IC50 in the test with NCI-H1581 [2] and in the test on A549 were 0.005 µM and over 20 µM, respectively.
Consider `C=CC(=O)Nc1ccc(Nc2nc(Nc3ccc(N4CCN(C)CC4)nc3)ncc2Cl)cc1Cl`, for which the IC50 worked out at 0.47 µM with NCI-H1581 [2] and 3.18 µM in the test on A549.
Take `C=CC(=O)Nc1ccc(Nc2nc(Nc3ccc(N4CCC(N(C)C)CC4)c(OC)c3)ncc2Cl)cc1Cl`: the IC50 with NCI-H1581 [2] was determined as 0.12 µM; with A549 it was 12.1 µM.
In the same order, the values of `C=CC(=O)Nc1ccc(Nc2nc(Nc3ccc(N4C[C@@H](C)N[C@@H](C)C4)cc3)ncc2Cl)cc1Cl` are 0.21 µM and 1.18 µM.
By inhibition is commonly meant the relative decrease from the control value, in per cent. Regarding `Cc1ccc(C(=O)Nc2ccc(CN3CCN(C)CC3)c(C(F)(F)F)c2)cc1C#Cc1cnc2cccnn12`, the inhibition entry in test [3] is “inactive”.
For the compound `C=CC(=O)Nc1ccc(Nc2nc(Nc3ccc(N4CCN(C)CC4)c(F)c3)ncc2Cl)cc1Cl`, the IC50 in the test with NCI-H1581 [2] was 0.13 µM; in the test on A549, 4.15 µM.
In the same order, the values of `C=CC(=O)Nc1ccc(Nc2nc(Nc3ccc(N4CCN(CC)CC4)c(OC)c3)ncc2Cl)cc1Cl` are 0.17 µM and 9.03 µM.
For the compound `C=CC(=O)Nc1ccccc1Nc1nc(Nc2ccc(N3CCN(C)CC3)cc2)ncc1Cl`, in test [4], the inhibition was found to be 94.9%.
